ChEMBL document CHEMBL4229333, “Effects of rigidity on the selectivity of protein kinase inhibitors” (Eur J Med Chem, 2018)

Experiments:
[1] = molecular target: Serine/threonine-protein kinase BRSK2 (Homo sapiens) (UniProt Q8IWQ3); experiment: Inhibition of BRSK2 (unknown origin) at 1 uM by mobility shift microfluidics platform based assay relative to control
[2] = molecular target: Calcium/calmodulin-dependent protein kinase type 1 (Homo sapiens) (UniProt Q14012); experiment: Inhibition of CAMK1A (unknown origin) at 1 uM by mobility shift microfluidics platform based assay relative to control
[3] = molecular target: Cyclin-dependent kinase 5/CDK5 activator 1 (Homo sapiens) (UniProt Q00535+Q15078); experiment: Inhibition of CDK5-p25 (unknown origin) at 1 uM by mobility shift microfluidics platform based assay relative to control; assay type: protein-complex assay
[4] = molecular target: Serine/threonine-protein kinase Chk1 (Homo sapiens) (UniProt O14757); experiment: Inhibition of CHEK1 (unknown origin) at 1 uM by mobility shift microfluidics platform based assay relative to control
[5] = molecular target: Dual specificity tyrosine-phosphorylation-regulated kinase 1A (Homo sapiens) (UniProt Q13627); experiment: Inhibition of DYRK1A (unknown origin) at 1 uM by mobility shift microfluidics platform based assay relative to control
[6] = molecular target: Dual specificity tyrosine-phosphorylation-regulated kinase 3 (Homo sapiens) (UniProt O43781); experiment: Inhibition of DYRK3 (unknown origin) at 1 uM by mobility shift microfluidics platform based assay relative to control
[7] = molecular target: Epidermal growth factor receptor (Homo sapiens) (UniProt P00533); experiment: Inhibition of EGFR (unknown origin) at 1 uM by mobility shift microfluidics platform based assay relative to control
[8] = molecular target: Ephrin type-A receptor 5 (Homo sapiens) (UniProt P54756); experiment: Inhibition of EPH-A5 (unknown origin) at 1 uM by mobility shift microfluidics platform based assay relative to control
[9] = molecular target: Ephrin type-B receptor 4 (Homo sapiens) (UniProt P54760); experiment: Inhibition of EPH-B4 (unknown origin) at 1 uM by mobility shift microfluidics platform based assay relative to control
[10] = molecular target: Receptor tyrosine-protein kinase erbB-2 (Homo sapiens) (UniProt P04626); experiment: Inhibition of ERB-B2 (unknown origin) at 1 uM by mobility shift microfluidics platform based assay relative to control
[11] = molecular target: Fibroblast growth factor receptor 3 (Homo sapiens) (UniProt P22607); experiment: Inhibition of FGFR3 (unknown origin) at 1 uM by mobility shift microfluidics platform based assay relative to control
[12] = molecular target: Interleukin-1 receptor-associated kinase 1 (Homo sapiens) (UniProt P51617); experiment: Inhibition of IRAK1 (unknown origin) at 1 uM by mobility shift microfluidics platform based assay relative to control
[13] = molecular target: Insulin receptor-related protein (Homo sapiens) (UniProt P14616); experiment: Inhibition of IRR (unknown origin) at 1 uM by mobility shift microfluidics platform based assay relative to control
[14] = molecular target: Vascular endothelial growth factor receptor 2 (Homo sapiens) (UniProt P35968); experiment: Inhibition of KDR (unknown origin) at 1 uM by mobility shift microfluidics platform based assay relative to control
[15] = molecular target: Dual specificity mitogen-activated protein kinase kinase 1 (Homo sapiens) (UniProt Q02750); experiment: Inhibition of MEK1 (unknown origin) at 1 uM by mobility shift microfluidics platform based assay relative to control
[16] = molecular target: Dual specificity mitogen-activated protein kinase kinase 2 (Homo sapiens) (UniProt P36507); experiment: Inhibition of MEK2 (unknown origin) at 1 uM by mobility shift microfluidics platform based assay relative to control
[17] = molecular target: Serine/threonine-protein kinase 4 (Homo sapiens) (UniProt Q13043); experiment: Inhibition of MST1 (unknown origin) at 1 uM by mobility shift microfluidics platform based assay relative to control
[18] = molecular target: Protein NDRG1 (Homo sapiens) (UniProt Q92597); experiment: Inhibition of NDRG1 (unknown origin) at 1 uM by mobility shift microfluidics platform based assay relative to control
[19] = molecular target: Serine/threonine-protein kinase Nek1 (Homo sapiens) (UniProt Q96PY6); experiment: Inhibition of NEK1 (unknown origin) at 1 uM by mobility shift microfluidics platform based assay relative to control
[20] = molecular target: Serine/threonine-protein kinase Nek6 (Homo sapiens) (UniProt Q9HC98); experiment: Inhibition of NEK6 (unknown origin) at 1 uM by mobility shift microfluidics platform based assay relative to control
[21] = molecular target: Mitogen-activated protein kinase 11 (Homo sapiens) (UniProt Q15759); experiment: Inhibition of P38-beta (unknown origin) at 1 uM by mobility shift microfluidics platform based assay relative to control
[22] = molecular target: Phosphorylase b kinase gamma catalytic chain, skeletal muscle/heart isoform (Homo sapiens) (UniProt Q16816); experiment: Inhibition of PHK-gamma1 (unknown origin) at 1 uM by mobility shift microfluidics platform based assay relative to control
[23] = molecular target: cAMP-dependent protein kinase catalytic subunit beta (Homo sapiens) (UniProt P22694); experiment: Inhibition of PKACB (unknown origin) at 1 uM by mobility shift microfluidics platform based assay relative to control
[24] = molecular target: Protein kinase C alpha type (Homo sapiens) (UniProt P17252); experiment: Inhibition of PKC-alpha (unknown origin) at 1 uM by mobility shift microfluidics platform based assay relative to control
[25] = molecular target: Serine/threonine-protein kinase N2 (Homo sapiens) (UniProt Q16513); experiment: Inhibition of PKN2 (unknown origin) at 1 uM by mobility shift microfluidics platform based assay relative to control
[26] = molecular target: cGMP-dependent protein kinase 2 (Homo sapiens) (UniProt Q13237); experiment: Inhibition of PRKG2 (unknown origin) at 1 uM by mobility shift microfluidics platform based assay relative to control
[27] = molecular target: Proto-oncogene tyrosine-protein kinase ROS (Homo sapiens) (UniProt P08922); experiment: Inhibition of ROS (unknown origin) at 1 uM by mobility shift microfluidics platform based assay relative to control
[28] = molecular target: Ribosomal protein S6 kinase alpha-3 (Homo sapiens) (UniProt P51812); experiment: Inhibition of RSK2 (unknown origin) at 1 uM by mobility shift microfluidics platform based assay relative to control
[29] = molecular target: Serine/threonine-protein kinase Sgk3 (Homo sapiens) (UniProt Q96BR1); experiment: Inhibition of SGK3 (unknown origin) at 1 uM by mobility shift microfluidics platform based assay relative to control
[30] = molecular target: Serine/threonine-protein kinase SIK1 (Homo sapiens) (UniProt P57059); experiment: Inhibition of SIK (unknown origin) at 1 uM by mobility shift microfluidics platform based assay relative to control
[31] = molecular target: STE20-like serine/threonine-protein kinase (Homo sapiens) (UniProt Q9H2G2); experiment: Inhibition of SLK (unknown origin) at 1 uM by mobility shift microfluidics platform based assay relative to control
[32] = molecular target: Serine/threonine-protein kinase TAO2 (Homo sapiens) (UniProt Q9UL54); experiment: Inhibition of TAOK2 (unknown origin) at 1 uM by mobility shift microfluidics platform based assay relative to control
[33] = molecular target: Serine/threonine-protein kinase TBK1 (Homo sapiens) (UniProt Q9UHD2); experiment: Inhibition of TBK1 (unknown origin) at 1 uM by mobility shift microfluidics platform based assay relative to control

Sequence of Serine/threonine-protein kinase Chk1 (Homo sapiens) (O14757 whole entry): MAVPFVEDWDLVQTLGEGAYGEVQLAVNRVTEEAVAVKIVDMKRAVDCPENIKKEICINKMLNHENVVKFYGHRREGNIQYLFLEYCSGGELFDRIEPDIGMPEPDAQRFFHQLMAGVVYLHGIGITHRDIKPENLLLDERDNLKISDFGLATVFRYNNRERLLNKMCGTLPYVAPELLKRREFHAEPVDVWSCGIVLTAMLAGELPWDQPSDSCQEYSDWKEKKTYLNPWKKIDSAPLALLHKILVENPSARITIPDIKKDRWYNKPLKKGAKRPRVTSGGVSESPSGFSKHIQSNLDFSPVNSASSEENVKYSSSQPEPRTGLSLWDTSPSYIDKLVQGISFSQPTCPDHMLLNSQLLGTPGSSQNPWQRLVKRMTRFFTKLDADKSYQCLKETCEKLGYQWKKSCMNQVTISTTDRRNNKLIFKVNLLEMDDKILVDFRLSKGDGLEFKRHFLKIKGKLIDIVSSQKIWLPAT
Sequence of Mitogen-activated protein kinase 11 (Homo sapiens) (Q15759 whole entry, canonical isoform): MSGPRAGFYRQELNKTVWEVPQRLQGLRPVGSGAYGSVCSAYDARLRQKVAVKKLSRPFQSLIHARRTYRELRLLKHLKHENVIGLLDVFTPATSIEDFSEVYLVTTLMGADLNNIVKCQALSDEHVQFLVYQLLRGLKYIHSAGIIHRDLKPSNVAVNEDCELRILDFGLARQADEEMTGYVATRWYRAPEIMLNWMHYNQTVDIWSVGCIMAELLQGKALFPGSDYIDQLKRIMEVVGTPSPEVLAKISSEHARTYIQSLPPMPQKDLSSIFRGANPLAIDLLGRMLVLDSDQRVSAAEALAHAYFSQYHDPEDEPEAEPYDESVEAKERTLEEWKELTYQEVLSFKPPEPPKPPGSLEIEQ
Sequence of Vascular endothelial growth factor receptor 2 (Homo sapiens) (P35968 whole entry): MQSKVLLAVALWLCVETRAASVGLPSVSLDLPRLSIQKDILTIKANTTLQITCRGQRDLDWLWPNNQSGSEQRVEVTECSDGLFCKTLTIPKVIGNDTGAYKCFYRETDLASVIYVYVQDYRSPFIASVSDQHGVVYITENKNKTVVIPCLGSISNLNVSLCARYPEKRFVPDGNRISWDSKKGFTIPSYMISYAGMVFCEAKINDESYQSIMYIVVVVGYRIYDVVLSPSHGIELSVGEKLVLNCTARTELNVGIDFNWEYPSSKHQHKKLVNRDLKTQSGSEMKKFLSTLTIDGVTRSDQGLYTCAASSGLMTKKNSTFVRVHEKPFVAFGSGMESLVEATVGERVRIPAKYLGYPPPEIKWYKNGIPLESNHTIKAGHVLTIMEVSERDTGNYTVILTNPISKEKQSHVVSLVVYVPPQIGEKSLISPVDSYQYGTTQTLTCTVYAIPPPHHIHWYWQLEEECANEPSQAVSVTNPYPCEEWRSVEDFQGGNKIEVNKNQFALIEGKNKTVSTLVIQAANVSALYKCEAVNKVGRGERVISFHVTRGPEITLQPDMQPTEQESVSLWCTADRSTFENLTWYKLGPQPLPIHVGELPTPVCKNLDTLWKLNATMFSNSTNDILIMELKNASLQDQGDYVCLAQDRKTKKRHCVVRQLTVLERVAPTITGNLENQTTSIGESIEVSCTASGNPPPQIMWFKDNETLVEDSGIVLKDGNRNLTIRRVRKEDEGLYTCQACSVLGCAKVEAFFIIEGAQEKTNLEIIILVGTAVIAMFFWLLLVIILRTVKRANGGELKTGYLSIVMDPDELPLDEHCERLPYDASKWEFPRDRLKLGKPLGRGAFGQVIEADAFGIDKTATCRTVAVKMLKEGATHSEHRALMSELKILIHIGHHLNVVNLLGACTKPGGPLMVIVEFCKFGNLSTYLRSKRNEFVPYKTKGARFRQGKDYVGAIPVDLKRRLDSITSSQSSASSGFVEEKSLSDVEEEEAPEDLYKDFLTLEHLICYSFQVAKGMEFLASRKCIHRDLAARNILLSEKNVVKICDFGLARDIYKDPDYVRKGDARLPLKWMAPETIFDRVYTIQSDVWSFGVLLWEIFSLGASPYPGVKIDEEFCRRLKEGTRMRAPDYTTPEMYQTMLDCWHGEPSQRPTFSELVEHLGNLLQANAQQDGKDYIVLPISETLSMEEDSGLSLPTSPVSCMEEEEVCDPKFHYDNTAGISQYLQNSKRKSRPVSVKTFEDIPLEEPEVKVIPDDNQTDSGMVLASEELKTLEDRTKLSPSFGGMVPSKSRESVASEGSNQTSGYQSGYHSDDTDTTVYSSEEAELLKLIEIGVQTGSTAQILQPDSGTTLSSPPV
Sequence of cGMP-dependent protein kinase 2 (Homo sapiens) (Q13237 whole entry): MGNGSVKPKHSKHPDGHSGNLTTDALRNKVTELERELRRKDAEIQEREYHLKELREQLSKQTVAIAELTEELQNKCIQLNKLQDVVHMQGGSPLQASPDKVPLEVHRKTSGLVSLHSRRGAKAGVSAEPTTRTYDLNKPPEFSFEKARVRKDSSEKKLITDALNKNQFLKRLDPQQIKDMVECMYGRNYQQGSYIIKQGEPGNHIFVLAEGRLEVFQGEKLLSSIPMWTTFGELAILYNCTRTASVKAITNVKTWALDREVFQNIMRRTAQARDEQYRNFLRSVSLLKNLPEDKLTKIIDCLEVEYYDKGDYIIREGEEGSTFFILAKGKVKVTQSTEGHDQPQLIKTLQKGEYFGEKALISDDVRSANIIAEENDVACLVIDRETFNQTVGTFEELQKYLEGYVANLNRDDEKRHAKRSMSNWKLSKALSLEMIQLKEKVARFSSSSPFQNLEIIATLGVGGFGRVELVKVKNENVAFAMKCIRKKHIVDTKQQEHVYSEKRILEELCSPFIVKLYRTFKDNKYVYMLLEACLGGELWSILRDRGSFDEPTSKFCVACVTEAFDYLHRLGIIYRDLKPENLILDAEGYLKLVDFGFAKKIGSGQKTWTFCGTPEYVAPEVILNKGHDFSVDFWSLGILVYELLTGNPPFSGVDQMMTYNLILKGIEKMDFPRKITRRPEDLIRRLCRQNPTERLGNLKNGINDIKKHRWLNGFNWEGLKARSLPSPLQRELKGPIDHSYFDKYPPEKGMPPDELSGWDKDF
Sequence of Serine/threonine-protein kinase Sgk3 (Homo sapiens) (Q96BR1 whole entry): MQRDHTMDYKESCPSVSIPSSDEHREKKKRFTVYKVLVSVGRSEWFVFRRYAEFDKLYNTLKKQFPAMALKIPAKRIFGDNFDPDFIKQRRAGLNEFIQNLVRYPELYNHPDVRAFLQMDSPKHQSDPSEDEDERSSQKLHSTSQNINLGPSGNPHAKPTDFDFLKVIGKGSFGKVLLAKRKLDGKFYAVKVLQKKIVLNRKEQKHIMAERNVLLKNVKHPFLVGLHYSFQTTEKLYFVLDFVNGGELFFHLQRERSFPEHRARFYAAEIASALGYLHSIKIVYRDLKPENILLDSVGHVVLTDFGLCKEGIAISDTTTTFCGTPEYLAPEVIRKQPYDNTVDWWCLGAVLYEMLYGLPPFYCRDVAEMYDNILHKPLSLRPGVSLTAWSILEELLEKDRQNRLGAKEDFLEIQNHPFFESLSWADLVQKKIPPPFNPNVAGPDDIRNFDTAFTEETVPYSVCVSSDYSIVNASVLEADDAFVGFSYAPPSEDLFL
Sequence of STE20-like serine/threonine-protein kinase (Homo sapiens) (Q9H2G2 whole entry, looked up): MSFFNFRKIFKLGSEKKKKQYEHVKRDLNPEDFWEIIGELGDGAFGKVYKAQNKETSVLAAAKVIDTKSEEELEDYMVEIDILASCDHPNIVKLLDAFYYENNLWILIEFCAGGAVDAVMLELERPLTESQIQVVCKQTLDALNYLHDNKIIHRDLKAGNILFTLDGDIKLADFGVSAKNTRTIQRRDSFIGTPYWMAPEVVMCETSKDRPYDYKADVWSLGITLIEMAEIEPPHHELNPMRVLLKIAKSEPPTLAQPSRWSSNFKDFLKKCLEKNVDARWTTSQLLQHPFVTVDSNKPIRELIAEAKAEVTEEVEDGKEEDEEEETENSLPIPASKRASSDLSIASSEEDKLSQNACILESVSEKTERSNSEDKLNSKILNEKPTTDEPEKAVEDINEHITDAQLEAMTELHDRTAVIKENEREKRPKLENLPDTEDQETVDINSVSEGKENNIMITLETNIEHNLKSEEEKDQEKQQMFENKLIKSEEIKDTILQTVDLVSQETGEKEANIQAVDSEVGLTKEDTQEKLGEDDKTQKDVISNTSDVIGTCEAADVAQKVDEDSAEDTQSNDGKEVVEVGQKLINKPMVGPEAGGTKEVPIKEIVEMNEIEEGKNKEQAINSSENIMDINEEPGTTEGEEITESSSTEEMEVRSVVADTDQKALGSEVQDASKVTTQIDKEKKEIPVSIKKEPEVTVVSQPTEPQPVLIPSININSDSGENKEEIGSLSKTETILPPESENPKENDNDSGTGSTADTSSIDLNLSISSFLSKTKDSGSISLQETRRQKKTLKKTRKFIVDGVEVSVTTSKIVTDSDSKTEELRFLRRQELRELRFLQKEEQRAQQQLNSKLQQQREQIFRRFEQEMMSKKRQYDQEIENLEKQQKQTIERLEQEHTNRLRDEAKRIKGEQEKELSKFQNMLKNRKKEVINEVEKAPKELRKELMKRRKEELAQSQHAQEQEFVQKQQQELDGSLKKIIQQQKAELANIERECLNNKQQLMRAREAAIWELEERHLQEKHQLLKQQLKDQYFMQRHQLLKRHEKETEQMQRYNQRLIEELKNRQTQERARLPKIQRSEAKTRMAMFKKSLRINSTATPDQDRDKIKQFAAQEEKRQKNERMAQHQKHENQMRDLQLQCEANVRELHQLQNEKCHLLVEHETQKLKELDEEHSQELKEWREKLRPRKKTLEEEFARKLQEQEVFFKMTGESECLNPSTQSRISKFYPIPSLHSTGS
Sequence of Phosphorylase b kinase gamma catalytic chain, skeletal muscle/heart isoform (Homo sapiens) (Q16816 whole entry, looked up, canonical isoform): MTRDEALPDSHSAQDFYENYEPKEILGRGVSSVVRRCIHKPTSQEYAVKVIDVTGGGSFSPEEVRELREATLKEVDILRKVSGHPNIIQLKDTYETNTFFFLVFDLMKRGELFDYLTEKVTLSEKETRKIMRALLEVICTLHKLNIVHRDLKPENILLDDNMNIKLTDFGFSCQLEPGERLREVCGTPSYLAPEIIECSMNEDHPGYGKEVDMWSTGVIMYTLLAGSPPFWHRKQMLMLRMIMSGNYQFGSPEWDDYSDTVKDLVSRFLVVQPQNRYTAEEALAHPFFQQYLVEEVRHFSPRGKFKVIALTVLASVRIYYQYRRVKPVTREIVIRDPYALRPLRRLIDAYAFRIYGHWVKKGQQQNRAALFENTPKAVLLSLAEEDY

Row | Compound | inhibition [1] [%] | inhibition [2] [%] | inhibition [3] [%] | inhibition [4] [%] | inhibition [5] [%] | inhibition [6] [%] | inhibition [7] [%] | inhibition [8] [%] | inhibition [9] [%] | inhibition [10] [%] | inhibition [11] [%] | inhibition [12] [%] | inhibition [13] [%] | inhibition [14] [%] | inhibition [15] [%] | inhibition [16] [%] | inhibition [17] [%] | inhibition [18] [%] | inhibition [19] [%] | inhibition [20] [%] | further results
1 | CC(C)n1nc(C#Cc2cccc(NC(=O)c3cccc(C(F)(F)F)c3)c2)c2c(N)ncnc21 | -3 | 2 | 2 | -1 | 2 | 7 | 55 | 100 | 97 | 58 | 52 | 28 | 2 | 109 | 13 | 25 | 10 | -3 | -1 | 0 | inhibition [21]: 23%; inhibition [22]: -3%; inhibition [23]: 2%; inhibition [24]: -7%; inhibition [25]: 3%; inhibition [26]: 24%; inhibition [27]: 18%; inhibition [28]: 0%; inhibition [29]: -2%; inhibition [30]: 43%; inhibition [31]: 92%; inhibition [32]: 17%; inhibition [33]: 6%
2 | CC(C)n1nc(C#Cc2cccc3cc(-c4cccc(C(F)(F)F)c4)ncc23)c2c(N)ncnc21 | 0 | 1 | 2 | -1 | 2 | 1 | 3 | 95 | 80 | 0 | 34 | -3 | -3 | 98 | -8 | 6 | 4 | 6 | -5 | -5 | inhibition [21]: 3%; inhibition [22]: 10%; inhibition [23]: 3%; inhibition [24]: 2%; inhibition [25]: 8%; inhibition [26]: 9%; inhibition [27]: 5%; inhibition [28]: 0%; inhibition [29]: -3%; inhibition [30]: 7%; inhibition [31]: 18%; inhibition [32]: 17%; inhibition [33]: 1%
